According to EP0488224A2, “Fermentationproduct of a Verticimonosporium strain and feed additivs containing a linear peptide” (MITSUBISHI KASEI CORPORATION, priority 1990, dated 1992):
Where two headings read alike, the source gives them in different places.

How the values were obtained:
Caenorhabditis elegans = experiment: Anti-nematode activity (1): growth and motility of nematodes in suspension; format: cell-based; parameters: key: 5 scales, - ±, +, ++ and +++; 5 scales, - ±, +, ++ and +++; 5 scales, - ±, +, ++ and +++; 5 scales, - ±, +, ++ and +++; 5 scales, - ±, +, ++ and +++; settings: 12.5 ppm, 20 °C, one week
Experimental: Anti-nematode activity of substance MBA090-18 was evaluated using Caenorhabditis elegans, a soil […] nematode.
Caenorhabditis elegans was suspended into sterilized water at the density of 20 - 30 heads/100 µl. To the suspension was added substance MBA090-18 at the concentration of 12.5 ppm. The mixture was incubated at 20 °C for one week while the growth and motility of nematodes being observed. […] The anti-nematode activity was evaluated and expressed according to the following 5 scales, - ±, +, ++ and +++.

[1] = value from a literature; cited from earlier work
[2] = Acute toxicity on oral administration; format: in vivo; settings: five male mouse
Experimental: The acute toxicity of substance MBA090-18 was determined using five male mouse on oral administration.

rumen bacterial solution = experiment: Effect on digestion of cellulose by rumen bacterial solution; parameters: species or system goat; settings: 5 µg/ml, 37 °C, 3 days; 0 µg/ml control 72
Experimental: The effect of substance MBA090-18 on the digestion of cellulose in the rumen was evaluated.
A goat (a native species of Japan, 20 Kg) equipped with rumen fistula was again used. A preparation of rumen bacterial solution was prepared by collecting the rumen content through the fistula, followed by a prompt centrifugation at 3000 rpm for 10 min to remove feed debris and protozoa.
To the 10 ml of the bacterial solution was added 50 ml of a basal medium described in the above Experiment 3 except that 0.4 g of cellulose powder and 6 mg of vitamin mixture are supplemented. The flask is then sealed anaerobically under CO₂ gas and incubated at 37 °C for 3 days. When the incubation finished, the cultured broth was assayed about the digestion of cellulose.

rumen fermentation = experiment: Effect on feed efficiency in vivo (rumen content of a goat given feed additive); settings: 80 mg/day in feed, percentage to control (100)
Experimental: The effect of linear peptide compounds on the feed effeciency was evaluated in vivo using a ruminant animal.
A goat (a native species of Japan, 25 Kg) equipped with rumen fistula was used. As a feed additive, either of linear peptide compounds, MBA090-18 and gramicidin D, was administered to the animal. The rumen content was collected through the fistula and subjected to the assay in the same manner as described in the above Experiment 4 to obtain the total amount of VFAs, the production ratio of propionic acid to acetic acid (PA/AA) and the number of survival protozoas. In the table, values are shown as the percentage to the control values (100) obtained by keeping animal with the same feed ration to which neither of test compounds has been added.

Compound | Antinematode Activity growth (Caenorhabditis elegans) | Antinematode Activity mobility (Caenorhabditis elegans) | acute toxicity [2] [mg/kg] | further results
Avermectin | +++ | +++ | – | acute toxicity [1]: 35 mg/kg
CN[C@H]1C[C@@H](N)[C@H](O)[C@@H](O[C@@H]2O[C@H](CO)[C@H](O)[C@@H]3OC4(O[C@H]23)O[C@H]([C@@H](N)CO)[C@H](O)[C@H](O)[C@H]4O)[C@@H]1O (some centres unmarked) [Hygromycin B] | ++ | ± | – | –
CC[C@@H](C(=O)[C@@H](C)[C@@H](O)[C@H](C)[C@@H]1O[C@@H]([C@@H](CC)C(=O)O)CC[C@@H]1C)[C@H]1O[C@]2(C=C[C@@H](O)[C@]3(CC[C@@](C)([C@H]4CC[C@](O)(CC)[C@H](C)O4)O3)O2)[C@H](C)C[C@@H]1C [Salinomysin] | – | – | 50 | –
Monensin | – | – | 43.8 | Digestion Rate of Cellulose (%) (rumen bacterial solution): 10%
Gramicidin D | – | – | – | total VFAs (%) (rumen fermentation): 103%; PA/AA (%) (rumen fermentation; propionic acid to acetic acid): 125%; Protozoa (%) (rumen fermentation; surviving protozoa): 86%
